# Measurements published in patent US20210161890A1, “COMPOSITIONS AND METHODS FOR TREATING BRAIN DYSFUNCTION” (BACH PHARMA, INC., priority 2015, published 2021).
# Counter-ions that a name gives are not always drawn. Like-named read-outs stand apart in the source and are kept apart here.
# How the values were obtained:
# GWI rats [1] = settings: for pattern separation ability (exploration of novel vs familiar object on P2): GWI rats
# Experimental: The animals were then treated 5 times a week with 5-amino-2,3-dihydro-1,4-phthalazinedione or VEH for 8 weeks. […] The animals are then subjected to cognitive and mood function tests starting from the fifth week of treatment.
# (§1) Administration of 5-amino-2,3-dihydro-1,4-phthalazinedione or VEH: Treatment was given for 8 weeks (5 times/week) via oral gavage, commencing in the 5th month after exposure to GMIR chemicals and stress. The doses of 5-amino-2,3-dihydro-1,4-phthalazinedione employed were 40 mg/kg, 80 mg/kg and 160 mg/kg.
# (§2) Behavioral tests for assessing cognitive and mood function: We examined animals in all groups through stress-free behavioral tests. We used a Pattern Separation Test (PST) to assess cognitive function and a Sucrose Preference Test (SPT) to assess mood function.
# In this test, each rat successively explored two different sets of identical objects (object types 1 and 2) placed on distinct types of floor patterns (Patterns 1 and 2 [P1 and P2]) for 5 minutes each in the two acquisition trials (separated by 30 minutes). Thirty minutes later, in the testing phase (Trial-3), each rat explored an object from trial 2 (which is now a familiar object) and an object from Trial-1 (which is now a novel object) placed on the floor pattern employed in trial 2 (P2).
# FIGS. 1B-1F compare percentages of object exploration time spent with the familiar object on pattern 2 (Fa on P2) and the novel object on pattern 2 (NO of P2) in different animal groups (n=11-14/group).
# GWI rats [2] = tested on: GWI rats
# Experimental: Time-line of various procedures for animals in cohorts 1 and 2: Animals were exposed daily to GWIR-chemicals and stress for 28 days, and were subjected to a survival period of 4 months between exposure and treatment. The animals were then treated 5 times a week with 5-amino-2,3-dihydro-1,4-phthalazinedione or VEH for 8 weeks. […] The animals are then subjected to cognitive and mood function tests starting from the fifth week of treatment. Finally, euthanasia and tissue harvesting was performed after 8 weeks of treatment.
# (§3) Exposure of animals to GWIR-chemicals and stress: Animals were exposed daily to the following chemicals for 28 days: pyridostigmine bromide (PB) at 2 mg/kg/day (via oral gavage), DEET at 60 mg/kg/day (via dermal application) and permethrin at 0.2 mg/kg/day (via dermal application). In addition, animals were subjected daily to 15 minutes of restraint stress using rat restrainers during the above 28-day period.
# (§4) Survival period between exposure and treatment: Following the exposure to GMIR chemicals and stress, animals were maintained in the vivarium for four months in regular cages (two per cage) with ad libitum access to food and water. Administration of 5-amino-2,3-dihydro-1,4-phthalazinedione or VEH: Treatment was given for 8 weeks (5 times/week) via oral gavage, commencing in the 5th month after exposure to GMIR chemicals and stress. The doses of 5-amino-2,3-dihydro-1,4-phthalazinedione employed were 40 mg/kg, 80 mg/kg and 160 mg/kg.
# as §2
# This test comprised four days of monitoring. On day 1, rats were housed individually and given free access to two identical bottles containing 1% sucrose solution. Rats were trained to adapt to sucrose solution for 24 hours. On day 2, one bottle was replaced with a new bottle containing regular water for 24 hours. On day 3, rats were deprived of water and food for 23 hours, and then on day 4, rats were given free access to two bottles: one containing 100 ml of sucrose solution and another containing 100 ml of regular vyater. An hour later, the consumed volume in both bottles was recorded.
# [3] = tested on: oxidative stress response and antioxidant genes in the hippocampus of GWI rats
# Experimental: The animals were then treated 5 times a week with 5-amino-2,3-dihydro-1,4-phthalazinedione or VEH for 8 weeks. […] Finally, euthanasia and tissue harvesting was performed after 8 weeks of treatment.
# as §1
# Analyses of oxidative stress: The hippocampal tissues obtained from animals belonging to cohort 1 were used for the following measurements. First, we analyzed the oxidative stress response and the expression of antioxidant genes using the Rat Oxidative Stress Response PCR Array from Qiagen. We analyzed the expression of 84 key genes involved in oxidative stress response and antioxidant activity in the hippocampus of animals belonging to different groups using quantitative real time PCR (qRT-PCR) to ascertain the effects of 5-amino-2,3-dihydro-1,4-phthalazinedione treatment on oxidative stress.
# (i) Expression of oxidative stress response and antioxidant genes: We analyzed the expression of 84 key genes involved in oxidative stress response and antioxidant activity in the hippocampus of animals belonging to different groups using quantitative real time PCR (qRTPCR).
# GWI rats [4] = settings: hippocampal tissue extracts
# Experimental: (§5) Time-line of various procedures for animals in cohorts 1 and 2: Animals were exposed daily to GWIR-chemicals and stress for 28 days, and were subjected to a survival period of 4 months between exposure and treatment. The animals were then treated 5 times a week with 5-amino-2,3-dihydro-1,4-phthalazinedione or VEH for 8 weeks. […] Finally, euthanasia and tissue harvesting was performed after 8 weeks of treatment.
# as §3
# Survival period between exposure and treatment: Following the exposure to GMIR chemicals and stress, animals were maintained in the vivarium for four months in regular cages (two per cage) with ad libitum access to food and water. […]
# Analyses of oxidative stress: The hippocampal tissues obtained from animals belonging to cohort 1 were used for the following measurements. […] Second, we measured lipid peroxidation through quantification of malondialdehyde. […]
# [5] = tested on: inflammatory cytokines in hippocampal tissues of GWI rats; settings: hippocampal tissue;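 also: relative cytokine levels by 16-cytokine plate array in hippocampus of rats given 28 days of GWI-related chemicals plus restraint stress, treated after a 4-month interval, tissue harvested after 8 weeks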
# Experimental: as §5, §3, §4
# Analyses of inflammation: The hippocampal tissues obtained from animals belonging to cohort 1 were also used to measure the relative levels of inflammatory cytokines in different groups of animals. We employed the Rat Cytokine Plate Array from Signosis, which facilitated analyses of 16 rat cytokines in a high-throughput manner. The cytokines included: tumor necrosis factor-alpha (TNF-α), interleukin=1 alpha (IL-1α), interleukin-1 beta (IL-1β), vascular endothelial growth factor (VEGF), fibroblast growth factor beta (FGFβ), interferon gamma (IFNγ), interleukin=5 (IL-5), interleukin=6 (IL-6), interleukin=15 (IL-15), leptin, monocyte chemoattractant protein=1 (MCP-1), IFN-gamma-inducible protein 10 (IP-10 or CXCL10), stem cell factor (SCF), Regulated on Activation, Normal T Cell Expressed and Secreted (Rantes), Macrophage inflammatory protein 1 alpha (MIP-1α) and transforming growth factor-beta (TGFβ).
# Analyses of inflammation: The hippocampal tissues obtained from animals were used for measurement of the relative levels of inflammatory cytokines in different groups of animals. We employed “The Rat Cytokine Plate Array” from Signosis, which facilitated analyses of 16 rat cytokines in a high-throughput manner. The cytokines included: TNF-α, IL-1α, IL-1β, VEGF, FGFβ, , IFNγ, IL-5, IL-6, IL-15, leptin, MCP-1, IP-10 (or CXCL10), SCF, Rantes, MIP-1α and TGFβ.
# [6] = GWI + MSL 40 mg/Kg, oral gavage 5 times/week for 8 weeks
# [7] = column headed GWI + MSL 160 mg/Kg, oral gavage 5 times/week for 8 weeks
# [8] = last treatment column, head prints no dose, oral gavage 5 times/week for 8 weeks
structure (smiles),measurement,setting,value
"Nc1cccc2c(=O)[nH][nH]c(=O)c12 [MSL, 5-amino-2,3-dihydro-1,4-phthalazinedione, monosodium salt]",pattern separation ability (exploration of novel vs familiar object on P2),GWI rats [1]; 40 mg/kg oral gavage,remained impaired
same,pattern separation ability (exploration of novel vs familiar object on P2),GWI rats [1]; 80 mg/kg oral gavage,remained impaired
same,pattern separation ability (exploration of novel vs familiar object on P2),GWI rats [1]; 160 mg/kg oral gavage,displayed an ability for pattern separation
same,total object exploration time between groups in Trial-3,"GWI rats [1]; GWI rats, 40, 80 and 160 mg/Kg groups vs naive and VEH, one-way ANOVA",did not show ditierences between groups
same,preference for sucrose-containing water over regular water,GWI rats [2]; 40 mg/kg oral gavage,remained impaired
same,preference for sucrose-containing water over regular water,GWI rats [2]; 80 mg/kg oral gavage,exhibited a clear preference for drinking sucrose-containing water over regular water
same,preference for sucrose-containing water over regular water,GWI rats [2]; 160 mg/kg oral gavage,exhibited a clear preference for drinking sucrose-containing water over regular water
same,total volume (normal water+sucrose-containing water) consumed,"GWI rats [2]; all dose groups vs naive and VEH, one-way ANOVA",did not show differences between groups
same,expression of 20 oxidative stress genes increased in GWI rats,[3]; 80 mg/kg,normalized to control levels
same,expression of 20 oxidative stress genes increased in GWI rats,[3]; 160 mg/kg,normalized to control levels
same,"expression of 4 oxidative stress response genes (Prdx6, Sod2, Sqstm1, Srxn1)",[3]; vs GWI rats receiving VEH,completely normalized
same,MDA concentration,"GWI rats [4]; 40 mg/kg, p<0.05",higher concentration of MDA than naive control rats
same,MDA concentration,GWI rats [4]; 160 mg/kg,reduced MDA concentration than GWI rats receiving VEH
same,FGF-beta Mean ± S.E.M.,[5]; [6],0.17 ± 0.05
same,IFN-gamma Mean ± S.E.M.,[5]; [6],0.19 ± 0.05
same,IL-1alpha Mean ± S.E.M.,[5]; [6],0.17 ± 0.05
same,IL-1 beta Mean ± S.E.M.,[5]; [6],0.38 ± 0.05
same,IL-5 Mean ± S.E.M.,[5]; [6],0.19 ± 0.05
same,IL-6 Mean ± S.E.M.,[5]; [6],0.23 ± 0.05
same,IL-10 Mean ± S.E.M.,[5]; [6],0.085 ± 0.02
same,IL-15 Mean ± S.E.M.,[5]; [6],0.13 ± 0.05
same,LEPTIN Mean ± S.E.M.,[5]; [6],0.40 ± 0.05
same,MCP-1 Mean ± S.E.M.,[5]; [6],0.09 ± 0.05
same,MIP-1 alpha Mean ± S.E.M.,[5]; [6],0.06 ± 0.05
same,Rantes (CCL5) Mean ± S.E.M.,[5]; [6],0.15 ± 0.05
same,SCF Mean ± S.E.M.,[5]; [6],0.32 ± 0.05
same,TNF-alpha Mean ± S.E.M.,[5]; [6],0.15 ± 0.02
same,VEGF Mean ± S.E.M.,[5]; [6],0.19 ± 0.05
same,FGF-beta,[5]; [7],0.21 ± 0.03
same,IFN-gamma,[5]; [7],0.23 ± 0.03
same,IL-1alpha,[5]; [7],0.21 ± 0.03
same,IL-1 beta,[5]; [7],0.42 ± 0.06
same,IL-5,[5]; [7],0.22 ± 0.03
same,IL-6,[5]; [7],0.28 ± 0.02
same,IL-10,[5]; [7],0.103 ± 0.02
same,IL-15,[5]; [7],0.14 ± 0.02
same,LEPTIN,[5]; [7],0.50 ± 0.09
same,MCP-1,[5]; [7],0.13 ± 0.02
same,MIP-1 alpha,[5]; [7],0.07 ± 0.01
same,Rantes (CCL5),[5]; [7],0.17 ± 0.03
same,SCF,[5]; [7],0.36 ± 0.06
same,TNF-alpha,[5]; [7],0.19 ± 0.03
same,VEGF,[5]; [7],0.22 ± 0.03
same,concentration of MIP-1α,"[5]; GWI rats, decreases not significant statistically",reduced the concentration of MIP-1α
same,concentration of 16 cytokines between groups,"[5]; naive, GWI + VEH and GWI rats receiving different doses",no significant differences
same,FGF-beta Mean ± S.E.M.,[5]; [8],0.18 ± 0.03
same,IFN-gamma Mean ± S.E.M.,[5]; [8],0.28 ± 0.03
same,IL-1alpha Mean ± S.E.M.,[5]; [8],0.17 ± 0.01
same,IL-1 beta Mean ± S.E.M.,[5]; [8],0.39 ± 0.06
same,IL-5 Mean ± S.E.M.,[5]; [8],0.19 ± 0.04
same,IL-6 Mean ± S.E.M.,[5]; [8],0.24 ± 0.03
same,IL-10 Mean ± S.E.M.,[5]; [8],0.086 ± 0.01
same,IL-15 Mean ± S.E.M.,[5]; [8],0.11 ± 0.02
same,LEPTIN Mean ± S.E.M.,[5]; [8],0.43 ± 0.11
same,MCP-1 Mean ± S.E.M.,[5]; [8],0.10 ± 0.02
same,MIP-1 alpha Mean ± S.E.M.,[5]; [8],0.08 ± 0.02
same,Rantes (CCL5) Mean ± S.E.M.,[5]; [8],0.18 ± 0.02
same,SCF Mean ± S.E.M.,[5]; [8],0.32 ± 0.07
same,TNF-alpha Mean ± S.E.M.,[5]; [8],0.18 ± 0.02
same,VEGF Mean ± S.E.M.,[5]; [8],0.21 ± 0.03
